Experimental data reported in patent publication US8883124B2, “Use of fullerenes in photoacoustic imaging” (University of Florida Research Foundation, Inc., priority 2007, dated 2014).

Experiments:
mouse tumor = assay: In vivo PAT of mouse tumor after intratumoral injection
Protocol: In vivo experiments were carried with mouse tumor model. Six to eight week old BALB/c nude mice (CAnN.Cg-Foxn1nu/Crl) were purchased from Charles River and acclimated for 7 to 10 days. Supplemental estrogen (2 μg of 17β-estradiol valerate/week) was placed subcutaneously at least 1 week prior to tumor implantation. Mice were subcutaneously inoculated with 2×10^7 BT474 cells on the abdominal wall. Experiments were conducted 7-10 days following implantation, after the tumors had reached approximately 10 mm in size.
A volume of 30 μL of nanoparticle suspension (10 mg/mL for PHF and 0.45 mg/mL for CP-0.25) was injected into the mouse tumor. The mouse was placed in the water tank on an inclined plane with its head above the water surface. The PAT instrumentation for in vivo experiments was similar to that described for in vitro experiments, except that acoustic signals were collected over 300° range, giving a total of 100 measurements for each trial. PAT images of mouse tumor were obtained before and after injecting nanoparticles.

Water solubility = format: physicochemical

Polyhydroxy fullerenes [PHF]
PAT signal in the region of the tumor after injection (mouse tumor; mouse tumor (BT474, BALB/c nude mice), intratumoral injection of 30 μL of 10 mg/mL, before vs after): large increase in PAT signal
contrast with the tumor and surrounding non-tumoral tissue in vivo using PAT (mouse tumor; mouse tumor, 30 μL intratumoral, 10 mg/mL for PHF and 0.45 mg/mL for CP-0.25): excellent contrast
water solubility (Water solubility): water-soluble
